Measured values reported in patent publication US12594276B2, “Inhibitors of human immunodeficiency virus replication” (ViiV Healthcare UK (No.5) Limited, priority 2024, dated 2026).
Like-named read-outs stand apart in the source and are kept apart here.

Columns and labels:
[1] = test system: recombinant NL4-3 virus (nef section replaced with Renilla luciferase gene) in MT-2 cells; test: HIV cell culture assay (antiviral activity, luciferase readout); type: cell-based; details: Renilla, NL43, MT-2 cells infected for 4-5 days with recombinant NL4-3 Renilla luciferase virus
Outline: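 Reporter virus is produced in 293T cells and its titer set in MT-2 cells by luciferase activity. MT-2 cells are then infected in the presence of serially diluted compound for 4-5 days. Luciferase is quantified and EC50 fitted to the median effect equation.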

[2] = Compound cytotoxicity, XTT-based colorimetric assay; type: cell-based; details: human
Outline: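 Follows the antiviral assay procedure, but with uninfected MT2 cells. On day 4, cell viability is measured by XTT-based colorimetry, giving CC50 values.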

[3] = uninfected MT2 cells, day 4, XTT, read-out: CC50

SMILES	EC50 [1] [nM]	CC50 at 4 days [2, 3] [nM]	CC50 at 4 days [2] [nM]
Cc1cc(C2(F)CCC(F)(F)CC2)nc2nc([C@H](Cc3cc(F)cc(F)c3)NC(=O)Cn3nc(C(F)F)c4c3C[C@@H]3C[C@H]43)n(-c3ccc(Cl)c4c(NS(C)(=O)=O)nn(CCN5C[C@@H](C)O[C@@H](C)C5)c34)c(=O)c12 (atropisomer, axis not shown; (P)) [Example 596, N-[(1S)-1-[(3P)-3-(4-chloro-1-{2-[(2R,6S)-2,6-dimethylmorpholin-4-yl]ethyl}-3-methanesulfonamido-1H-indazol-7-yl)-5-methyl-4-oxo-7-(1,4,4-trifluorocyclohexyl)-3H,4H-pyrido[2,3-d]pyrimidin-2-yl]-2-(3,5-difluorophenyl)ethyl]-2-[(2S,4S)-9-(difluoromethyl)-7,8-diazatricyclo[4.3.0.0^2,^4]nona-1(6),8-dien-7-yl]acetamide]	0.029	> 20	–
COCCCn1nc(NS(C)(=O)=O)c2c(Cl)ccc(-n3c([C@H](Cc4cc(F)cc(F)c4)NC(=O)Cn4nc(C(F)F)c5c4C(F)(F)[C@@H]4C[C@H]54)nc4nc(C5CCC(F)(F)CC5)cc(NCCN5CCC6(CC5)CC6)c4c3=O)c21 (atropisomer, axis not shown; (P)) [Example 515, N-[(1S)-1-[(3P)-5-[(2-{6-azaspiro[2.5]octan-6-yl}ethyl)amino]-3-[4-chloro-3-methanesulfonamido-1-(3-methoxypropyl)-1H-indazol-7-yl]-7-(4,4-difluorocyclohexyl)-4-oxo-3H,4H-pyrido[2,3-d]pyrimidin-2-yl]-2-(3,5-difluorophenyl)ethyl]-2-[(2S,4R)-9-(difluoromethyl)-5,5-difluoro-7,8-diazatricyclo[4.3.0.0^2,^4]nona-1(6),8-dien-7-yl]acetamide]	0.016	> 20	–
COCCCNc1cc(C2CCC(F)(F)CC2)nc2nc([C@H](Cc3cc(F)cc(F)c3)NC(=O)Cn3nc(C(F)F)c4c3C(F)(F)[C@@H]3C[C@H]43)n(-c3ccc(Cl)c4c(NS(C)(=O)=O)nn(CCCOC)c34)c(=O)c12 (atropisomer, axis not shown; (P)) [Example 285, N-[(1S)-1-[(3P)-3-[4-chloro-3-methanesulfonamido-1-(3-methoxypropyl)-1H-indazol-7-yl]-7-(4,4-difluorocyclohexyl)-5-[(3-methoxypropyl)amino]-4-oxo-3H,4H-pyrido[2,3-d]pyrimidin-2-yl]-2-(3,5-difluorophenyl)ethyl]-2-[(2S,4R)-9-(difluoromethyl)-5,5-difluoro-7,8-diazatricyclo[4.3.0.0^2,^4]nona-1(6),8-dien-7-yl]acetamide]	0.009	> 50	–
CS(=O)(=O)Nc1nn(CCN2C[C@H](F)C[C@H](F)C2)c2c(-n3c([C@H](Cc4cc(F)cc(F)c4)NC(=O)Cn4nc(C(F)F)c5c4C(F)(F)[C@@H]4C[C@H]54)nc4nc(C5CCC(F)(F)CC5)cc(C5CC5)c4c3=O)ccc(Cl)c12 (atropisomer, axis not shown; (P)) [Example 322, N-[(1S)-1-[(3P)-3-(4-chloro-1-{2-[(3R,5S)-3,5-difluoropiperidin-1-yl]ethyl}-3-methanesulfonamido-1H-indazol-7-yl)-5-cyclopropyl-7-(4,4-difluorocyclohexyl)-4-oxo-3H,4H-pyrido[2,3-d]pyrimidin-2-yl]-2-(3,5-difluorophenyl)ethyl]-2-[(2S,4R)-9-(difluoromethyl)-5,5-difluoro-7,8-diazatricyclo[4.3.0.0^2,^4]nona-1(6),8-dien-7-yl]acetamide]	0.009	> 50	–
COCCCn1nc(NS(C)(=O)=O)c2c(Cl)ccc(-n3c([C@H](Cc4cc(F)cc(F)c4)NC(=O)Cn4nc(C(F)F)c5c4C(F)(F)[C@@H]4C[C@H]54)nc4nc(C5CCC(F)(F)CC5)cc(CN5CC(OC)C5)c4c3=O)c21 (atropisomer, axis not shown; (P)) [Example 604, N-[(1S)-1-[(3P)-3-[4-chloro-3-methanesulfonamido-1-(3-methoxypropyl)-1H-indazol-7-yl]-7-(4,4-difluorocyclohexyl)-5-[(3-methoxyazetidin-1-yl)methyl]-4-oxo-3H,4H-pyrido[2,3-d]pyrimidin-2-yl]-2-(3,5-difluorophenyl)ethyl]-2-[(2S,4R)-9-(difluoromethyl)-5,5-difluoro-7,8-diazatricyclo[4.3.0.0^2,^4]nona-1(6),8-dien-7-yl]acetamide]	0.011	> 20	–
CO[C@@H](C)CNC(=O)Cn1nc(NS(C)(=O)=O)c2c(Cl)ccc(-n3c([C@H](Cc4cc(F)cc(F)c4)NC(=O)Cn4nc(C5CC5)c5c4C[C@@H]4C[C@H]54)nc4nc(C5CCC(F)(F)CC5)cc(C)c4c3=O)c21 (atropisomer, axis not shown; (P)) [Example 395, N-[(1S)-1-[(3P)-3-[4-chloro-3-methanesulfonamido-1-({[(2S)-2-methoxypropyl]carbamoyl}methyl)-1H-indazol-7-yl]-7-(4,4-difluorocyclohexyl)-5-methyl-4-oxo-3H,4H-pyrido[2,3-d]pyrimidin-2-yl]-2-(3,5-difluorophenyl)ethyl]-2-[(2S,4S)-9-cyclopropyl-7,8-diazatricyclo[4.3.0.0^2,^4]nona-1(6),8-dien-7-yl]acetamide]	0.034	> 20	–
COCCCn1nc(NS(C)(=O)=O)c2c(Cl)ccc(-n3c([C@H](Cc4cc(F)cc(F)c4)NC(=O)Cn4nc(C(F)F)c5c4C(F)(F)[C@@H]4C[C@H]54)nc4nc(C5CCC(F)(F)CC5)cc(CN5C[C@H](F)C[C@H](F)C5)c4c3=O)c21 (atropisomer, axis not shown; (P)) [Example 488, N-[(1S)-1-[(3P)-3-[4-chloro-3-methanesulfonamido-1-(3-methoxypropyl)-1H-indazol-7-yl]-7-(4,4-difluorocyclohexyl)-5-{[(3R,5S)-3,5-difluoropiperidin-1-yl]methyl}-4-oxo-3H,4H-pyrido[2,3-d]pyrimidin-2-yl]-2-(3,5-difluorophenyl)ethyl]-2-[(2S,4R)-9-(difluoromethyl)-5,5-difluoro-7,8-diazatricyclo[4.3.0.0^2,^4]nona-1(6),8-dien-7-yl]acetamide]	0.009	> 20	–
Cc1cc(C2(F)CCC(F)(F)CC2)nc2nc([C@H](Cc3cc(F)cc(F)c3)NC(=O)Cn3nc([C@H]4CC4(F)F)c4c3C[C@H]3C[C@@H]43)n(-c3ccc(Cl)c4c(NS(C)(=O)=O)nn(CCN5C[C@@H](C)O[C@@H](C)C5)c34)c(=O)c12 (atropisomer, axis not shown; (P)) [Example 598, N-[(1S)-1-[(3P)-3-(4-chloro-1-{2-[(2R,6S)-2,6-dimethylmorpholin-4-yl]ethyl}-3-methanesulfonamido-1H-indazol-7-yl)-5-methyl-4-oxo-7-(1,4,4-trifluorocyclohexyl)-3H,4H-pyrido[2,3-d]pyrimidin-2-yl]-2-(3,5-difluorophenyl)ethyl]-2-[(2R,4R)-9-[(1R)-2,2-difluorocyclopropyl]-7,8-diazatricyclo[4.3.0.0^2,^4]nona-1(6),8-dien-7-yl]acetamide]	0.009	> 20	–
Cc1cc(C2CCC(F)(F)CC2)nc2nc([C@H](Cc3cc(F)cc(F)c3)NC(=O)Cn3nc(C(F)F)c4c3C(F)(F)[C@@H]3C[C@H]43)n(-c3ccc(Cl)c4c(NS(C)(=O)=O)nn(CCN5C[C@H](F)C[C@H](F)C5)c34)c(=O)c12 (atropisomer, axis not shown; (P)) [Example 5, N-[(1S)-1-[(3P)-3-(4-chloro-1-{2-[(3R,5S)-3,5-difluoropiperidin-1-yl]ethyl}-3-methanesulfonamido-1H-indazol-7-yl)-7-(4,4-difluorocyclohexyl)-5-methyl-4-oxo-3H,4H-pyrido[2,3-d]pyrimidin-2-yl]-2-(3,5-difluorophenyl)ethyl]-2-[(2S,4R)-9-(difluoromethyl)-5,5-difluoro-7,8-diazatricyclo[4.3.0.0^2,4]nona-1(6),8-dien-7-yl]acetamide]	0.009	> 20000	–
CS(=O)(=O)Nc1nn(CCN2CC[C@@H](F)C2)c2c(-n3c([C@H](Cc4cc(F)cc(F)c4)NC(=O)Cn4nc(C(F)F)c5c4C(F)(F)[C@@H]4C[C@H]54)nc4nc(C5CCC(F)(F)CC5)ccc4c3=O)ccc(Cl)c12 (atropisomer, axis not shown; (P)) [Example 208, N-[(1S)-1-[(3P)-3-(4-chloro-1-{2-[(3R)-3-fluoropyrrolidin-1-yl]ethyl}-3-methanesulfonamido-1H-indazol-7-yl)-7-(4,4-difluorocyclohexyl)-4-oxo-3H,4H-pyrido[2,3-d]pyrimidin-2-yl]-2-(3,5-difluorophenyl)ethyl]-2-[(2S,4R)-9-(difluoromethyl)-5,5-difluoro-7,8-diazatricyclo[4.3.0.0^2,^4]nona-1(6),8-dien-7-yl]acetamide]	0.009	> 50	–
Cc1cc(C2CCC(F)(F)CC2)nc2nc([C@H](Cc3cc(F)cc(F)c3)NC(=O)Cn3nc(C(F)F)c4c3C(F)(F)[C@@H]3C[C@H]43)n(-c3ccc(Cl)c4c(NS(C)(=O)=O)nn(CCN5[C@@H]6CC[C@H]5CC(F)(F)C6)c34)c(=O)c12 (atropisomer, axis not shown; (P)) [Example 246, N-[(1S)-1-[(3P)-3-(4-chloro-1-{2-[(1R,5S)-3,3-difluoro-8-azabicyclo[3.2.1]octan-8-yl]ethyl}-3-methanesulfonamido-1H-indazol-7-yl)-7-(4,4-difluorocyclohexyl)-5-methyl-4-oxo-3H,4H-pyrido[2,3-d]pyrimidin-2-yl]-2-(3,5-difluorophenyl)ethyl]-2-[(2S,4R)-9-(difluoromethyl)-5,5-difluoro-7,8-diazatricyclo[4.3.0.0^2,^4]nona-1(6),8-dien-7-yl]acetamide]	0.028	–	> 50
